In US6803387B1, “Treatment of neuropathic pain or fibromyalgia” (Abbott GmbH & Co. KG, priority 1999, dated 2004) one finds neuropathic pain data, which are given here for one compound.

The structures appear in SMILES notation.

In this test the test system is neuropathic pain. The test can be described thus: oral administration to a patient with neuropathic pain. The test is classed as in vivo, human. The settings on record: one patient, 10 mg orally once daily for weight loss; pain returned on discontinuation, disappeared again on re-administration. The protocol:
Sibutramine 10 mg was administered orally once daily for weight loss to a patient who also had neuropathic pain. The neuropathic pain disappeared. Therapy with sibutramine was discontinued and the neuropathic pain returned. When sibutramine was then administered again, the neuropathic pain disappeared.

With `CC(C)CC(N(C)C)C1(c2ccc(Cl)cc2)CCC1` (stereo not shown) [Sibutramine, N,N-dimethyl-1-[1-(4-chlorophenyl)cyclobutyl]-3-methylbutylamine], the neuropathic pain entry is listed as “disappeared”.
